This is an account of results in ChEMBL document CHEMBL1201862, “PubChem BioAssay data set” (2004).

Common to all, as to assay: NCI-60 cell line screen, 48 h
Test [1] deals with Hs-578T.
The test system of test [2] is BT-549.
The subject of test [3] is RPMI-8226.
Test [4] deals with SF-539.
For test [5], the system named is SR.
Test [6] relates to HOP-92.
The test system of test [7] is DU-145.
Test [8] has as its system NCI-H23.
The subject of test [9] is HCT-15.
Test [10] concerns SNB-19.
The subject of test [11] is SK-MEL-5.
Test [12] has as its system UACC-257.
The subject of test [13] is NCI-H226.
For test [14], the system named is KM12.
The test system of test [15] is HT-29.
Test [16] has as its system SK-MEL-28.
Test [17] relates to MDA-MB-231.
Test [18] relates to HL-60.
Test [19] concerns SK-MEL-2.

Where “and” joins values, the source holds several entries; their conditions need not be identical. Equal entries are not always repeated.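 Briefly, cells in 96-well plates were exposed to five compound concentrations for 48 h, and endpoints were estimated by linear interpolation. GI50: concentration for 50% inhibition of growth.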 Calls of active or inactive are those of the source. Cut-off read from the data, not from the text of the source: active = GI50 up to about 1.1 µM and inactive = higher. A value given as a limit tells only on which side of the number the result lay.

Turning to `CC1=C(O)C(O)=C(C2=C(O)C(O)=C(C)C(=O)C2=O)C(=O)C1=O`, the GI50 in test [1] was 36.7 µM (inactive); in test [2], 31 µM (inactive); in [3], 34.3 µM (inactive); in [4] it was 33 µM (inactive); in test [5], > 100 µM (inactive); in test [6], 29.9 µM (inactive). The GI50 in test [7] was 31.3 µM (inactive); in [8] it was 40.7 µM (inactive); in test [9], greater than 100 µM; in [10], 50.5 µM (inactive); in test [11], 27.2 µM (inactive); in test [12], 35.6 µM (inactive). Further, the GI50 in test [13] was 35.2 µM (inactive); in test [14] it was 38.5 µM (inactive); in test [15], 59.3 µM (inactive); in test [16], 29.2 µM (inactive); in test [17] it was 31.8 µM (inactive); in test [18], 42.9 µM (inactive).

Regarding `COc1ccccc1NS(=O)(=O)c1ccc2ncn(NS(=O)(=O)c3ccc(Cl)cc3)c(=O)c2c1`, the GI50 in test [1] was 77.3 µM (inactive); in test [2] it was > 100 µM (inactive); in test [3], 26.9 µM (inactive); in test [4], > 100 µM (inactive); in test [5], 63.8 µM (inactive); in [6] it was > 100 µM (inactive). For the same compound, the GI50 was > 100 µM (inactive) in test [7]; > 100 µM (inactive) in [8]; greater than 100 µM in test [9]; > 100 µM (inactive) in test [10]; > 100 µM (inactive) in test [12]; > 100 µM (inactive) in test [13]. Moreover, the GI50 in [14] was 61.4 µM (inactive); in test [15], > 100 µM (inactive); in test [16] it was > 100 µM (inactive); in test [17], > 100 µM (inactive); in test [18] it was 85.7 µM (inactive); in test [19] it was 45.2 µM (inactive).

With `COC(NC(=O)Nc1ccc(C)cc1)(C(F)(F)F)C(F)(F)F`, the GI50 in [1] is 25 µM (inactive); in test [2], 22.9 µM (inactive); in test [3] it was 24.6 µM (inactive); in test [4], 41.4 µM (inactive); in [5], 30.9 µM (inactive); in [6] it was 33 µM (inactive). For the same compound, the GI50 in [7] is 35.6 µM (inactive); in test [8], 30.1 µM (inactive); in test [10], 23.7 µM (inactive); in test [11], 15.6 µM (inactive); in test [13], 55.8 µM (inactive); in test [14], 34.7 µM (inactive). The GI50 in test [15] is 31 µM (inactive); in test [16], 42.2 µM (inactive); in test [17], 32.2 µM (inactive); in [18], > 100 µM (inactive).

Consider `O=C([O-])C(O)C(O)C(=O)O.[K+]` (stereo not given) [POTASSIUM HYDROGENTARTRATE], for which the GI50 in [1], in [2], in test [3], in [4], in test [5] and in test [6] was > 100 µM (inactive) throughout. Also, the GI50 in test [7] is > 100 µM (inactive); in test [9], greater than 100 µM; in [10], > 100 µM (inactive); in test [11] it was > 100 µM (inactive); in test [12], > 100 µM (inactive); in [13], > 100 µM (inactive). For the same compound, the GI50 in test [14], in test [15], in test [16], in test [17], in [18] and in test [19] was > 100 µM (inactive) throughout.

With `NC1=CN2c3ccccc3N(CC(=O)N3CCOCC3)C2C=C1` (stereo not given), the GI50 in test [1], in [2], in test [4], in test [5], in test [6] and in [7] was > 100 µM (inactive) each time. In addition, the GI50 in test [8] is > 100 µM (inactive); in test [9], greater than 100 µM; in test [10] it was > 100 µM (inactive); in test [11], > 100 µM (inactive); in [12], > 100 µM (inactive); in test [13] it was > 100 µM (inactive). The GI50 in test [14], in test [15], in test [16], in test [17], in [18] and in test [19] was > 100 µM (inactive) each time.

Regarding `CC#CC#C/C=C1/O[C@]2(CCC(OC(C)=O)CO2)[C@@H]2O[C@H]12` (stereo not given in full), the GI50 was 40.3 µM (inactive) in test [1]; 21.1 µM (inactive) in test [2]; 27.2 µM (inactive) in test [3]; 25.9 µM (inactive) in test [5]; 28.1 µM (inactive) in test [6]; 30.5 µM (inactive) in [7]. Further, the GI50 in [8] was 19.4 µM (inactive); in test [9] it was 16.6 µM; in [10], 27.7 µM (inactive); in [12] it was 21.6 µM (inactive); in [13] it was 20.4 µM (inactive); in [14], 19.9 µM (inactive). In addition, the GI50 in test [15] is 28.9 µM (inactive); in [17], 23 µM (inactive); in test [18], 18.4 µM (inactive); in test [19], 16.8 µM (inactive).

As for `CCCCOc1ccc(S(=O)(=O)N/C(N)=N/c2ccc(Cl)cc2)cc1`, the GI50 is 20.1 µM (inactive) in test [1]; 17.8 µM (inactive) in [2]; 17.2 µM (inactive) in test [3]; 20.9 µM (inactive) in [4]; 3.27 µM (inactive) in [5]; 10.8 µM (inactive) in [6]. In addition, the GI50 in [7] is 17.4 µM (inactive); in test [8] it was 15.7 µM (inactive); in test [9], 14 µM; in [10], 16.9 µM (inactive); in test [11] it was 18.9 µM (inactive); in test [12], 14.1 µM (inactive). Moreover, the GI50 was 19.9 µM (inactive) in test [13]; 17.9 µM (inactive) in [14]; 18.3 µM (inactive) in test [15]; 16.7 µM (inactive) in [16]; 15.6 µM (inactive) in test [17]; 17.1 µM (inactive) in test [19].

With `COc1ccc2c(c1OC)CN1CCc3cc4c(cc3C1C2)OCO4` (stereo not given) [TETRAHYDROBERBERINE], the GI50 in test [1], in test [2], in [3], in test [4], in test [5] and in [6] was > 100 µM (inactive) throughout. Moreover, the GI50 in [7] was > 100 µM (inactive); in test [8], > 100 µM (inactive); in test [9] it was greater than 100 µM; in [10], > 100 µM (inactive); in test [11] it was > 100 µM (inactive); in [12] it was > 100 µM (inactive). The GI50 was > 100 µM (inactive) and 68.7 µM (inactive) in [13]; > 100 µM (inactive) in test [14]; > 100 µM (inactive) in test [16]; > 100 µM (inactive) in [17]; > 100 µM (inactive) in test [18]; > 100 µM (inactive) in test [19].
